“Also recorded” adds a separate entry of the source.
Key:
Type in all cases: in vivo, C57BL/6 mice
[1] = system: MC38 colorectal tumors; assay: MC38 syngeneic tumor model; conditions: IP 15 mg/kg as printed in Figure S5
[2] = system: MC38 tumor immune infiltrates; assay: Flow cytometry of MC38 tumor immune infiltrates; conditions: MC38 tumors
Experimental: (§1) Figure 5 M029 inhibits syngeneic MC38 tumor growth by promoting infiltration and activation of both T cells and NK cells in the tumor microenvironment. […] This T cell activation was further supported by i) the increased effector CD8^+ population in the tumor microenvironment. […] Statistical analyses were performed with Graphpad Prism software 10.4.2 through the student t test or the one‐way ANOVA test using Turkey post‐hoc comparison. *p < 0.05, **p < 0.01, ***p < 0.001, and ****p < 0.0001 were considered significant. Figures are plotted as average ± standard error of the mean (SEM).
To elucidate the mechanism by which M029 elicits its antitumor activity, we analyzed the immune cell population within the tumor samples. […] This observation is in line with earlier reports that SHP1 activity contributes to LAIR1‐mediated T cell exhaustion.^[ [91] ^]
For immune cell profiling in the tumor microenvironment, tumor samples were first reduced to single-cell suspensions by compressing the tumors through a 70 µm filter (Falcon, #352350) into cold 1× PBS supplemented with 5 mM EDTA using the plunger of a syringe (HSW, #4010-200V0). Samples were strained through a second filter and then re-suspended in cold blocking buffer made of 5% BSA, 0.5 mM EDTA, and a 1:1000 dilution of CD16/32. Samples were then incubated with following fluorophore-conjugated antibodies. CD4-488 (Biolegend #100423), CD8a-PE (Biolegend #100708), CD45-PeCy7 (Biolegend #103114), CD25-BV605 (Biolegend #102035), CD44-647 (Biolegend #103039), CD19-488 (Biolegend #115524), NK1.1-647 (Biolegend #108719), CD3-PeCy5 (Biolegend #100273), CD8-BV711 (Biolegend #100747), CD4-PeCy5 (Biolegend #100409), CD69-FITC (Biolegend #104505), FoxP3-488 (Biolegend #126405), Perforin-APC (Biolegend #154303), CD62L-BV605 (Biolegend #104437), TIM3-PerCP/Cy5.5 (Biolegend #134011), PD1-647 (Biolegend #109118), CD11b-BV711 (Biolegend #101241), CD206-FITC (Biolegend #141704), F4/80-647 (Biolegend #123122), CD86-PE (Biolegend #159203), CD11c-BV421 (Biolegend #117329), Ly6G-488 (Biolegend #127625), CD11b-APC (Biolegend #101211), Ly6C-PE (Biolegend #128007), F4/80-BV711 (Biolegend #123147), IL2-BV421 (Biolegend #503825), IFNγ-BV605 (Biolegend #505839), TNFα-APC (Biolegend #506307). The following antibodies were used for depletion studies: anti-CD8α (BioXCell #BE0061) and anti-NK1.1 (BioXCell #BE0036). Samples were incubated with antibodies at a 1:600 dilution in blocking buffer on ice for two hours. After staining, samples were washed and re-suspended in 5% BSA, 0.5 mM EDTA solution, then added to a 5 mL polystyrene tube for analysis (Falcon, #352235). Sample data was acquired using a BD LSRFortessa Cell Analyzer, and results were analyzed using FlowJo.

[3] = system: MC38 colorectal tumors; assay: MC38 syngeneic tumor model
Experimental: Given its favorable PK profiles, we evaluated the antitumor activity of M029 in C57BL/6 mice bearing MC38 colorectal tumors. Mice bearing established tumors were given once daily with either saline, 25 mg/kg (IP), 25 mg/kg (PO), or 100 mg/kg (PO) M029.
as §1
All the in vivo studies were performed under an animal protocol (1511001324) approved by the Institutional Animal Care & Use Committee of Purdue University, in accordance with the recommendations in the Guide for the Care and Use of Laboratory Animals of the National Institutes of Health. For PK study, C57BL6 female mice (25-30g body weight) were injected intraperitoneally, orally, or intravenously with 25 mg/kg M029 dissolved in 0.4 ml saline. Blood samples were collected through the tail vein at the indicated time points after injection. Isoflurane was used as an anesthetic. All blood samples were centrifuged at 1,500 g for 5 minutes, and plasma was separated and stored at –80°C until analysis by a validated method based on reversed-phase liquid chromatography coupled to mass-spectrometric detection (LC/MS) using a previously published procedure.^169 For the MC38 syngeneic tumor study, 12-week-old C57BL6 female mice were injected subcutaneously with […] MC38 cells in the right and left flanks for tumor growth. When tumors reached an average volume of 100 mm^3 mice were tumor size-matched and randomly assigned to different experimental groups for experiments. Four mice with eight tumors were used in each treatment group. Mice were injected orally with saline or 25 or 100 mg/kg M029 daily. Tumor sizes and animal weights were measured twice per week. Tumor volume (mm^3) = (length X width^2)/2. At the end of the experiments, mice were euthanized, and tumors were collected for analysis. Among eight tumors collected from each group, four homogenous samples and […] were prepared for Western blots and histology analysis.

Compound: N#Cc1ccsc1NS(=O)(=O)c1ccc(NC(=O)CCl)cc1 [M029, 2-Chloro-N-(4-(N-(3-cyanothiophen-2-yl)sulfamoyl)phenyl)acetamide]
- MC38 tumor progression, IP dosage [1]: delayed MC38 tumor progression
- late exhaustion T cells (PD1+TIM3+) [2]: a decline
- pre-exhausted PD1+TIM3− T cells [2]: increased
- activation marker CD25 on infiltrating CD8+ T cells ([2]; 25 mg/kg): higher expression
- activation of tumor-infiltrating NK cells (CD69) ([2]; 25 mg/kg): significantly more activated
- cytotoxicity marker perforin on infiltrating CD8+ T cells ([2]; 25 mg/kg): higher expression
- effector markers CD44+CD62L− on infiltrating CD8+ T cells ([2]; 25 mg/kg): higher expression
- infiltration of cytotoxic CD8+ T cells ([2]; 25 mg/kg): increased infiltration
- increase of CD3+ T cells in tumor ([2]; 25 mg/kg, vs control): ~33%
- increase of NK1.1+ NK cells in tumor ([2]; 25 mg/kg, vs control): ~100%
- body weight ([3]; 25 or 100 mg/kg oral): no significant changes
- tumor volume and tumor weight ([3]; 25 or 100 mg/kg oral vs vehicle): significant decreases
- kidney and liver tissue sections ([3]; IP dosing, Figure S5): No significant lesion or tissue changes
- MC38 tumor progression, 25 mg/kg IP ([3]; once daily IP injection 25 mg/kg): effectively halted tumor progression
- MC38 tumor progression, 25 mg/kg PO ([3]; once daily oral gavage 25 mg/kg, 25 mg/kg): effectively halted tumor progression; also recorded: significantly delayed
- MC38 tumor progression, 100 mg/kg PO ([3]; once daily oral gavage 100 mg/kg, 100 mg/kg): effectively halted tumor progression; also recorded: significantly delayed
- signs of toxicity ([3]; up to 100 mg/kg, body weight and organ histology): no obvious signs of toxicity

Reference: publication PMC12833730, “Discovery of a First‐in‐Class Covalent Allosteric SHP1 Inhibitor with Immunotherapeutic Activity” (Angewandte Chemie (International Ed. in English), 2025)
